Measured values reported in PubChem BioAssay (NCI).
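These data come from cells grown in 96-well plates and exposed to compound for 48 hours at five concentrations. GI50 is the concentration that inhibits growth by half. TGI marks complete inhibition of growth.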

Tests used:
Assay in all cases: inhibition of tumour cell growth, NCI panel, 48 h
786-0 renal = test system: 786-0 renal
MDA-MB-468 breast = test system: MDA-MB-468 breast
A549 NSCLC = test system: A549 NSCLC
SF-295 CNS = test system: SF-295 CNS
K-562 leukemia = test system: K-562 leukemia
HCC-2998 colon = test system: HCC-2998 colon
SR leukemia = test system: SR leukemia
A498 renal = test system: A498 renal
U251 CNS = test system: U251 CNS
NCI-H226 lung = test system: NCI-H226 lung
CAKI-1 renal = test system: CAKI-1 renal
HS 578T breast = test system: HS 578T breast
NCI/ADR-RES ovarian = test system: NCI/ADR-RES ovarian
RXF 393 renal = test system: RXF 393 renal
MALME-3M melanoma = test system: MALME-3M melanoma
NCI-H23 lung = test system: NCI-H23 lung
RPMI-8226 leukemia = test system: RPMI-8226 leukemia
NCI-H522 lung = test system: NCI-H522 lung
SW-620 colon = test system: SW-620 colon
CCRF-CEM leukemia = test system: CCRF-CEM leukemia
HL-60(TB) leukemia = test system: HL-60(TB) leukemia
T-47D breast = test system: T-47D breast
HCT-116 colon = test system: HCT-116 colon
MDA-MB-435 = test system: MDA-MB-435
DU-145 prostate = test system: DU-145 prostate
ACHN renal = test system: ACHN renal
PC-3 prostate = test system: PC-3 prostate
SN12C renal = test system: SN12C renal
SF-268 CNS = test system: SF-268 CNS
UACC-62 melanoma = test system: UACC-62 melanoma
KM12 colon = test system: KM12 colon
OVCAR-5 ovarian = test system: OVCAR-5 ovarian
HT29 colon = test system: HT29 colon
SK-MEL-5 melanoma = test system: SK-MEL-5 melanoma
LOX IMVI melanoma = test system: LOX IMVI melanoma
OVCAR-3 ovarian = test system: OVCAR-3 ovarian
SF-539 CNS = test system: SF-539 CNS
MCF7 breast = test system: MCF7 breast
HOP-62 NSCLC = test system: HOP-62 NSCLC
BT-549 breast = test system: BT-549 breast
M14 melanoma = test system: M14 melanoma
COLO 205 colon = test system: COLO 205 colon
SK-MEL-28 melanoma = test system: SK-MEL-28 melanoma
IGROV1 ovarian = test system: IGROV1 ovarian
OVCAR-4 ovarian = test system: OVCAR-4 ovarian
MOLT-4 leukemia = test system: MOLT-4 leukemia
TK-10 renal = test system: TK-10 renal
HOP-92 NSCLC = test system: HOP-92 NSCLC
SK-OV-3 ovarian = test system: SK-OV-3 ovarian
OVCAR-8 ovarian = test system: OVCAR-8 ovarian
SNB-19 CNS = test system: SNB-19 CNS
UACC-257 melanoma = test system: UACC-257 melanoma
HCT-15 colon = test system: HCT-15 colon
EKVX NSCLC = test system: EKVX NSCLC
NCI-H460 lung = test system: NCI-H460 lung

Cc1ccc([N+](=O)[O-])c(C(=O)Nc2ccc(-c3ccc4c(c3)NC(=O)/C4=C\c3ccc[nH]3)cc2)c1
GI50 (786-0 renal): 24.4 µM | TGI (786-0 renal): 68.8 µM | GI50 (MDA-MB-468 breast): 0.267 µM | TGI (MDA-MB-468 breast): 0.943 µM | GI50 (A549 NSCLC): > 100 µM | TGI (A549 NSCLC): > 100 µM | GI50 (SF-295 CNS): 29.2 µM | TGI (SF-295 CNS): > 100 µM | GI50 (K-562 leukemia): > 100 µM | TGI (K-562 leukemia): > 100 µM | GI50 (HCC-2998 colon): 60 µM | TGI (HCC-2998 colon): > 100 µM | GI50 (SR leukemia): 10.4 µM | TGI (SR leukemia): > 100 µM | GI50 (A498 renal): 23 µM | TGI (A498 renal): 49.8 µM | GI50 (U251 CNS): 16.4 µM | TGI (U251 CNS): 35.5 µM | GI50 (NCI-H226 lung): 23.4 µM | TGI (NCI-H226 lung): > 100 µM | GI50 (CAKI-1 renal): > 100 µM | TGI (CAKI-1 renal): > 100 µM | GI50 (HS 578T breast): 26.3 µM | TGI (HS 578T breast): > 100 µM | GI50 (NCI/ADR-RES ovarian): 17 µM | TGI (NCI/ADR-RES ovarian): 38.1 µM | GI50 (RXF 393 renal): 14.6 µM | TGI (RXF 393 renal): 30.6 µM | GI50 (MALME-3M melanoma): 36.7 µM | TGI (MALME-3M melanoma): > 100 µM | GI50 (NCI-H23 lung): 1.78 µM | TGI (NCI-H23 lung): 19.2 µM | GI50 (RPMI-8226 leukemia): > 100 µM | TGI (RPMI-8226 leukemia): > 100 µM | GI50 (NCI-H522 lung): 17 µM | TGI (NCI-H522 lung): 45.6 µM | GI50 (SW-620 colon): > 100 µM | TGI (SW-620 colon): > 100 µM | GI50 (CCRF-CEM leukemia): > 100 µM | TGI (CCRF-CEM leukemia): > 100 µM | GI50 (HL-60(TB) leukemia): > 100 µM | TGI (HL-60(TB) leukemia): > 100 µM | GI50 (T-47D breast): 0.515 µM | TGI (T-47D breast): 20.9 µM | GI50 (HCT-116 colon): 23.2 µM | TGI (HCT-116 colon): > 100 µM | GI50 (MDA-MB-435): > 100 µM | TGI (MDA-MB-435): > 100 µM | GI50 (DU-145 prostate): 43.8 µM | TGI (DU-145 prostate): > 100 µM | GI50 (ACHN renal): 43.6 µM | TGI (ACHN renal): > 100 µM | GI50 (PC-3 prostate): > 100 µM | TGI (PC-3 prostate): > 100 µM | GI50 (SN12C renal): 55.2 µM | TGI (SN12C renal): > 100 µM | GI50 (SF-268 CNS): 31.1 µM | TGI (SF-268 CNS): > 100 µM | GI50 (UACC-62 melanoma): 90.4 µM | TGI (UACC-62 melanoma): > 100 µM | GI50 (KM12 colon): > 100 µM | TGI (KM12 colon): > 100 µM | GI50 (OVCAR-5 ovarian): 23.9 µM | TGI (OVCAR-5 ovarian): > 100 µM | GI50 (HT29 colon): > 100 µM | TGI (HT29 colon): > 100 µM | GI50 (SK-MEL-5 melanoma): > 100 µM | TGI (SK-MEL-5 melanoma): > 100 µM | GI50 (LOX IMVI melanoma): 45.9 µM | TGI (LOX IMVI melanoma): > 100 µM | GI50 (OVCAR-3 ovarian): 27.6 µM | TGI (OVCAR-3 ovarian): 98.8 µM | GI50 (SF-539 CNS): 25.4 µM | TGI (SF-539 CNS): > 100 µM | GI50 (MCF7 breast): 0.237 µM | TGI (MCF7 breast): 17.1 µM | GI50 (HOP-62 NSCLC): 22.2 µM | TGI (HOP-62 NSCLC): 54 µM | GI50 (BT-549 breast): 9.01 µM | TGI (BT-549 breast): 61 µM | GI50 (M14 melanoma): > 100 µM | TGI (M14 melanoma): > 100 µM | GI50 (COLO 205 colon): 53.1 µM | TGI (COLO 205 colon): > 100 µM | GI50 (SK-MEL-28 melanoma): > 100 µM | TGI (SK-MEL-28 melanoma): > 100 µM | GI50 (IGROV1 ovarian): 17.8 µM | TGI (IGROV1 ovarian): 55 µM | GI50 (OVCAR-4 ovarian): 24.4 µM | TGI (OVCAR-4 ovarian): > 100 µM | GI50 (MOLT-4 leukemia): 11.2 µM | TGI (MOLT-4 leukemia): > 100 µM | GI50 (TK-10 renal): 22.7 µM | TGI (TK-10 renal): 62 µM | GI50 (HOP-92 NSCLC): 21.3 µM | TGI (HOP-92 NSCLC): 57.1 µM | GI50 (SK-OV-3 ovarian): 23.6 µM | TGI (SK-OV-3 ovarian): 63.2 µM | GI50 (OVCAR-8 ovarian): 18.7 µM | TGI (OVCAR-8 ovarian): 39.7 µM | GI50 (SNB-19 CNS): 19.9 µM | TGI (SNB-19 CNS): 50.3 µM | GI50 (UACC-257 melanoma): > 100 µM | TGI (UACC-257 melanoma): > 100 µM | GI50 (HCT-15 colon): > 100 µM | TGI (HCT-15 colon): > 100 µM | GI50 (EKVX NSCLC): 0.211 µM | TGI (EKVX NSCLC): > 100 µM | GI50 (NCI-H460 lung): 3.48 µM | TGI (NCI-H460 lung): > 100 µM
